Assays:
Assay in all cases: selective drug sensitivity score (sDSS, relative to normal bone marrow) (sDSS (score)); higher = more potent and effective on the cell line relative to normal bone marrow cells
Details in all cases: 72 h
697 = tested on: 697
ALL-PO = tested on: ALL-PO
ALL-SIL = tested on: ALL-SIL
CCRF-CEM = tested on: CCRF-CEM
CCRF-HSB2 = tested on: CCRF-HSB2
COG-LL-317 = tested on: COG-LL-317
COG-LL-319h = tested on: COG-LL-319h
COG-LL-332h = tested on: COG-LL-332h
DND-41 = tested on: DND-41
HAL-01 = tested on: HAL-01
JURKAT = tested on: JURKAT
KASUMI-2 = tested on: KASUMI-2
KASUMI-9 = tested on: KASUMI-9
LC4-1 = tested on: LC4-1
MOLT-4 = tested on: MOLT-4
NALM-6 = tested on: NALM-6
P12-ICHIKAWA = tested on: P12-ICHIKAWA
PF-382 = tested on: PF-382
RPMI-8402 = tested on: RPMI-8402
SUP-B15 = tested on: SUP-B15
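Also: ALL cell lines in 384-well plates, five doses spanning 10,000-fold, each plate scaled between vehicle and 100 µmol/L benzalkonium chloride controls, sDSS an adapted area-under-curve metric.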

SMILES | selective drug sensitivity score 697 | selective drug sensitivity score (ALL-PO) | selective drug sensitivity score (ALL-SIL) | selective drug sensitivity score (CCRF-CEM) | selective drug sensitivity score (CCRF-HSB2) | selective drug sensitivity score (COG-LL-317) | selective drug sensitivity score (COG-LL-319h) | selective drug sensitivity score (COG-LL-332h) | selective drug sensitivity score (DND-41) | selective drug sensitivity score (HAL-01) | selective drug sensitivity score (JURKAT) | selective drug sensitivity score (KASUMI-2) | selective drug sensitivity score (KASUMI-9) | selective drug sensitivity score (LC4-1) | selective drug sensitivity score (MOLT-4) | selective drug sensitivity score (NALM-6) | selective drug sensitivity score (P12-ICHIKAWA) | selective drug sensitivity score (PF-382) | selective drug sensitivity score (RPMI-8402) | selective drug sensitivity score (SUP-B15)
O=C(O)c1ccc(O)c2ncccc12 [IOX-1] (top concentration 100000 nM) | 5.64 | 3.74 | 6.24 | 3.74 | 5.34 | 4.54 | 2.94 | 7.54 | 6.24 | 3.34 | 3.54 | 2.04 | 2.94 | 3.24 | 3.34 | 3.74 | 4.34 | 4.44 | 2.64 | 4.24
CC(C)N(C[C@H]1O[C@@H](n2cnc3c(N)ncnc32)[C@H](O)[C@@H]1O)[C@H]1C[C@@H](CCc2nc3cc(C(C)(C)C)ccc3[nH]2)C1 [Pinometostat] (top concentration 1000 nM) | 0 | 0 | 0.2 | 0 | 0 | 0 | 0 | 0 | 0 | 0 | 0 | 0 | 0 | 0 | 0 | 0 | 0 | 0 | 0 | 0
CCCS(=O)(=O)Nc1ccc(F)c(C(=O)c2c[nH]c3ncc(-c4ccc(Cl)cc4)cc23)c1F [Vemurafenib] (top concentration 10000 nM) | 5.16 | 2.46 | 3.06 | 3.46 | 4.06 | 3.26 | 0.36 | 2.96 | 3.66 | 0.16 | 2.26 | -1.14 | 1.66 | 3.56 | 2.26 | -1.14 | 4.16 | 3.56 | 2.06 | 2.26
O=C1Cc2cc(C(=O)NC3C[C@H]4CC[C@@H](C3)N4S(=O)(=O)CC3CCN(CCCC(F)(F)F)CC3)c(Cl)cc2N1 (stereo not given in full) (top concentration 10000 nM) | 0 | 0 | 0 | 0 | 0 | 0 | 0 | 0 | 0 | 0 | 0 | 0 | 0.6 | 0 | 0 | 0 | 0 | 0 | 0 | 0
CC[C@@H]1C(=O)N(C)c2cnc(Nc3ccc(C(=O)NC4CCN(C)CC4)cc3OC)nc2N1C1CCCC1 [BI-2536] (top concentration 1000 nM) | 17.4 | 15.9 | 21.5 | 20.1 | 20.1 | 21.2 | 23.6 | 17.4 | 15.6 | 3.64 | 19.2 | 14.1 | 20.3 | 20.1 | 19.6 | 13.4 | 20.9 | 18.7 | 22.4 | 22.9
O=C(c1ccc(C(=O)N2CCC(N3CCCC3)CC2)c(Nc2ccccc2)c1)N1CCC(N2CCCC2)CC1 [UNC1215] (top concentration 10000 nM) | 0 | 0 | 0.4 | 0 | 0 | 0 | 0 | 0 | 0 | 0 | 0 | 0 | 0 | 0 | 0 | 0 | 0 | 0 | 0 | 0
C[C@@H](C(=O)O)c1ccc(-c2ccccc2)c(F)c1 [Tarenflurbil] (top concentration 10000 nM) | -0.16 | -0.16 | -0.16 | -0.16 | -0.16 | -0.16 | -0.16 | 4.14 | 0.54 | 4.74 | -0.16 | -0.16 | 6.84 | 0.64 | 0.14 | 3.44 | -0.16 | -0.16 | -0.16 | 0.44
COc1cc(OC2CCN(C)CC2)ccc1Nc1ncc2c(n1)n(C1CCCC1)c(=O)n2C [AZ3146] (top concentration 10000 nM) | 1.04 | 3.44 | 2.14 | 0.94 | 1.84 | 0.74 | 7.04 | 1.34 | 0.24 | 2.24 | 0.24 | -4.16 | -0.36 | 3.14 | 1.84 | 3.04 | 0.64 | -0.86 | 1.94 | 1.34
Cc1ccc(=O)n(-c2ccccc2)c1 [Pirfenidone] (top concentration 10000 nM) | 0 | 0 | 0 | 0 | 0 | 0 | 1.2 | 0 | 0 | 0 | 0 | 0 | 0 | 0 | 0 | 0 | 0 | 0 | 0 | 0
CN(C)C/C=C/C(=O)Nc1cc2c(Nc3ccc(F)c(Cl)c3)ncnc2cc1O[C@H]1CCOC1 [Afatinib] (top concentration 1000 nM) | -0.34 | -0.64 | -0.84 | 0.66 | 1.96 | -0.84 | -0.84 | -0.84 | -0.84 | 3.06 | 0.16 | -0.84 | 2.16 | -0.84 | -0.84 | -0.84 | -0.74 | -0.84 | -0.84 | -0.84
C=CC(=O)Nc1cccc(Nc2nc(Nc3ccc(OCCOC)cc3)ncc2F)c1 [Spebrutinib] (top concentration 1000 nM) | 1.94 | 4.14 | 1.64 | 1.64 | 0.04 | -0.16 | -0.06 | -0.16 | -0.16 | 8.34 | 0.74 | -0.16 | 4.84 | 0.54 | -0.16 | 2.04 | -0.16 | -0.16 | -0.16 | 0.04
CC(C)(O)CNc1nc(Nc2ccnc(C(F)(F)F)c2)nc(-c2cccc(C(F)(F)F)n2)n1 [Enasidenib] (top concentration 10000 nM) | -0.2 | 2.7 | 1.8 | -0.1 | -0.1 | 0.8 | 2 | -0.5 | 0.4 | -0.8 | -0.7 | 4 | -0.8 | 3.9 | -0.8 | -0.8 | 0.2 | -0.1 | 0.4 | -0.3
O=C(CCNC(=O)c1ccc(OC(F)(F)F)cc1)N[C@@H]1CCCc2ccccc21 [ML390] (top concentration 50000 nM) | 16.4 | 5.3 | 2 | 9.3 | 12.2 | 16.8 | 16.9 | 16.1 | 5.4 | 4.9 | 14.8 | 2.9 | 13.1 | 7.4 | 15.2 | 10.8 | 18.5 | 9.8 | 12.6 | 19.1
C[C@H]1Oc2cc(cnc2N)-c2c(nn(C)c2C#N)CN(C)C(=O)c2ccc(F)cc21 (top concentration 1000 nM) | -0.72 | -0.72 | -0.32 | -0.72 | -0.72 | -0.72 | 7.38 | -0.72 | -0.72 | 4.18 | -0.72 | 4.68 | -0.72 | -0.72 | -0.72 | -0.72 | -0.72 | -0.72 | -0.72 | -0.72
CCCc1cc(C)[nH]c(=O)c1CNC(=O)c1cc(-c2ccnc(N3CCN(C)CC3)c2)cc2c1cnn2C(C)C [GSK343] (top concentration 1000 nM) | 0 | 0.1 | 0 | 0 | 0 | 0 | 0 | 0 | 0 | 0 | 0 | 0 | 0 | 0 | 0 | 0 | 0 | 0 | 0 | 0
Cc1ccc(NC(=O)c2ccc(CN3CC[C@H](N(C)C)C3)c(C(F)(F)F)c2)cc1Nc1nccc(-c2cncnc2)n1 [Bafetinib] (top concentration 1000 nM) | 0 | 0 | 34 | 0 | 9.9 | 0 | 1.9 | 12.3 | 1 | 0 | 0 | 0.3 | 0 | 0.4 | 0 | 0 | 0 | 0 | 0 | 21.9
FC(F)c1nc2ccccc2n1-c1nc(N2CCOCC2)nc(N2CCOCC2)n1 [ZSTK474] (top concentration 10000 nM) | 8.46 | 10.5 | 2.46 | 9.36 | 3.76 | 1.46 | 4.86 | 3.86 | -3.14 | 18.5 | 1.76 | 6.76 | 9.86 | -0.44 | 7.26 | 11.9 | 3.66 | 5.66 | 5.86 | 2.56
CN1CCN(c2cc(C(=O)Nc3ccc4c(c3)-c3c(c(C(N)=O)nn3-c3ccc(F)cc3)CC4)c(Cl)cn2)CC1 [PHA-408] (top concentration 10000 nM) | 0.78 | 0.78 | 2.58 | 0.48 | 1.88 | -1.22 | 5.08 | 2.98 | 3.48 | 2.58 | 0.18 | 4.48 | 2.48 | 3.98 | 0.58 | 0.78 | -0.02 | 1.48 | 1.88 | 3.08
